Laboratory results published in patent US20050249675A1, “Mucin synthesis inhibitors” (priority 2003, published 2005).
Entries after “also recorded” stand apart in the source; their conditions may differ. Where two headings read alike, the source gives them in different places.

What was measured:
NCI-H292/hCLCA1 cells = test: AB/PAS staining of mucous glycoconjugates in NCI-H292/hCLCA1 cells; assay type: cell-based, human; settings: NFA 100 μM, MFA 125 or 250 μM, talniflumate 12.5, 25 or 50 μM; vs untreated cells
Protocol: For the determination of mucous glycoconjugate production, NCI-H292/ctl and NCI-H292/hCLCA1 (AAF 15) cells were cultured in 24-well plates for 3 days. Cells were then fixed with Formalin and mucous glycoconjugates were visualized by AB/PAS staining (Sigma). […] For chloride channel blockage studies, cells were cultured in the presence of niflumic acid (NFA) (Sigma) at 100 μM concentration, mefanamic acid (MFA) at 125 or 250 μM or talniflumate at 12.5, 25 or 50 μM, or media alone.
For the determination of mucous glycoconjugate production, NCI-H292/hCLCA1 cells were cultured in 24-well plates for 3 days with at concentrations of 0 to 150 μM of the talniflumate enantiomers or media alone (control). Cells were then fixed with Formalin and mucous glycoconjugates were visualized by AB/PAS staining (Sigma). […] In this assay both enantiomers were seen to inhibit muco-glycoconjugate production at concentrations>40 μM.

MUC2 = assay type: cell-based; settings: LTA from S. aureus; FIG. 22
[1] = test system: MUC5A/C secretion in hCLCA1 expressing H292 cells; test: MUC5A/C secretion by ELLA in hCLCA1 expressing H292 cells; assay type: cell-based, human; parameters: key to ELLA: (+) = inhibition; (−) = no inhibition; settings: for IC50: NCI-H292/hCLCA1 cells, 0 through 150 μM, FIG. 26, read-out: IC50, inhibition of MUC5A/C secretion
H292 clone 15 cells [2] = test: ELLA for MUC5AC, H292 clone 15 cells (Example 11); assay type: cell-based, human; settings: Homo sapiens, NCI-H292; MUC5AC in conditioned media; 48 hours; average of 3 experiments
Protocol: ELLA (Enzyme-Linked Lectin Assay) was used to determine the inhibitory effect of compounds on mucus production by H292 clone 15 cells. H292 clone 15 cells, a subclone from human pulmonary mucoepidermoid carcinoma cells overexpressing hCLCA1, were grown to confluent, followed by incubation with increasing concentrations of compounds for 48 hours. Conditioned media were collected and MUC5AC (the major secretory mucin in lungs) content was determined by ELLA measurement as described below. 96 well microtiter plates were coated with a mouse monoclonal antibody against human MUC5AC (1-13M1, NeoMarkers), then incubated with test conditioned media. Bound MUC5AC was detected by horseradish peroxidase-conjugated soybean lectin that has a high affinity towards highly-glycosylated proteins such as MUC5AC. Conversion of peroxidase substrate TMB (Tetramethylbenzidine Base) was quantified by reading at 450 nm. O.D. (optical density) readings were plotted against concentrations of compounds. Linear regression was used to derive the concentration at which O.D. was reduced by 50% (IC50) when compared to vehicle-treated cells.

[3] = test system: mice sensitized to Aspergillus fumigatus; test: Aspergillus fumigatus murine asthma model, talniflumate chow; assay type: in vivo; settings: oral; for Lung eosinophilia by bronchoalveolar lavage: talniflumate chow, vs sensitized mice fed standard chow
[4] = molecular target: T1, human chloride channel hCLCA1 (Homo sapiens, UniProt A8K7I4); test: Patch clamp chloride current, NCI-H292 cell expressing hCLCA1; assay type: cell-based; settings: 5 micromolar talniflumate; 2 μM ionomycin and 2 mM calcium; positive voltage
T1 construct: expressed in transfected cells; host or cells: NCI-H292 (human pulmonary mucoepidermoid carcinoma)
T1 sequence (A8K7I4 22-914): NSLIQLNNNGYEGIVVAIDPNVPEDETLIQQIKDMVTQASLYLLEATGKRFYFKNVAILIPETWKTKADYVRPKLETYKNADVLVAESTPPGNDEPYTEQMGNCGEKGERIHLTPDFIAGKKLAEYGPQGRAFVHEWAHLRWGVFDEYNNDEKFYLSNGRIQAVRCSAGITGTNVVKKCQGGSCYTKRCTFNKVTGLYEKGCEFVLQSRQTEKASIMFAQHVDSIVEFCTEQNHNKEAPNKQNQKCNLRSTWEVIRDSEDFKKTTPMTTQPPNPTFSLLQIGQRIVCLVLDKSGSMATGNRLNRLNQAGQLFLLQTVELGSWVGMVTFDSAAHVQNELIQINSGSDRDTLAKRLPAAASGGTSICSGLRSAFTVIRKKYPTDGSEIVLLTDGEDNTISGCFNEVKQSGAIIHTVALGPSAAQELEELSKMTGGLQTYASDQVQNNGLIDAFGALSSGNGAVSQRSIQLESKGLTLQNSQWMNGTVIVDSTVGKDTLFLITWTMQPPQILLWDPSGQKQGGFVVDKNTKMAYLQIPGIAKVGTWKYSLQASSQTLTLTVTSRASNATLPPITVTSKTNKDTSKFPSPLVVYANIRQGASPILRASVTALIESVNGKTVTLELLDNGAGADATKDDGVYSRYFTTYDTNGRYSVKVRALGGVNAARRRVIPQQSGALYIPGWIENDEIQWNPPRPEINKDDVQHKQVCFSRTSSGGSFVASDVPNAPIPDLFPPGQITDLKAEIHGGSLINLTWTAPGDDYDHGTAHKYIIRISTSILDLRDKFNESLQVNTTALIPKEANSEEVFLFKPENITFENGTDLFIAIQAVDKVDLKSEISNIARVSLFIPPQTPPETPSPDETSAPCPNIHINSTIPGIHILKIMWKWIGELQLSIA
Protocol: An NCI-H292 cell transfected with a plasmid expressing the human chloride channel hCLCA1 was patch clamped and chloride current (I) was measured over a range of voltages (V). Substantial chloride current was invoked by the addition of 2 μM ionomycin and 2 mM calcium (circles) compared to baseline (squares), indicating activation of hCLCA1.

[5] = test system: CF mice (CF knock-out mice and CF AF508 mice); test: CF mice body weight and survival on talniflumate chow; assay type: in vivo; settings: approximate dose of 100 mg/kg per os in chow
Protocol: Within two weeks of weaning, the osmotic agent treatment was discontinued and the mice were either placed on talniflumate containing chow or control chow. The CF mice consuming control chow lost 10-15% body weight and died (CF knock-out) or were euthanized (CF AF508) due to the animal's moribund state within 7 days post-osmotic agent. In contrast, the CF mice that consumed talniflumate (approximate dose of 100 mg/kg per os) gained 8-12% body weight and survived at least 26 days, at which time they were sacrificed to evaluate histopathology (see FIG. 20).

H292 clone 15 cells [6] = test: Alamar Blue cytotoxicity
activated Caco2 cells [7] = test: PAS staining for mucin in activated Caco2 cells; settings: for PAS positive staining mucin glycoconjugates: activated Caco2 cells, 100 μm for NFA and 300 μm for DIDS, vs untreated cells
activated Caco2 cells [8] = settings: Caco-2
activated LHL4 cells = test: Eotaxin ELISA, activated LHL4 cells; assay type: cell-based; settings: increasing concentrations
Protocol: Activated LHL4 cells that express and secrete eotaxin have been produced and used to test for inhibitors of eotaxin production. These cells were assayed in vitro for eotaxin by an ELISA technique well known in the art (R&D Systems).

[9] = test system: activated Caco2 cell line; test: Viability of activated Caco2 cells; assay type: cell-based; settings: even higher concentrations of NFA; FIG. 3
[10] = test system: mice sensitized by nasal aspiration of Aspergillus fumigatus antigen; test: Aspergillus fumigatus antigen murine asthma model, intra-tracheal NFA; assay type: in vivo; settings: 100 μg NFA intra-tracheal, days 0-21
IL9 transgenic mice = test: Mucin production in lungs of IL9 transgenic mice; assay type: in vivo; settings: IT once daily for three days; NFA 100 μg
Protocol: Certified virus-free male and female IL9 transgenic mice (IL9TG5-FVB/N) 5-6 weeks of age were bred in our laboratories. Male and female FVB/N mice 5-6 weeks of age were purchased from Jackson Laboratories (Bar Harbor Me.). Animals were housed in high-efficiency, particulate filtered air and allowed free access to food and water for 3 to 7 days prior to experimental manipulation. The animal facilities were maintained at 22° C. and the light:dark cycle was automatically controlled (10:14 hour light:dark).
Animals were phenotyped, naïve, or 24 hrs after receiving intra-tracheal (IT) shame (vehicle) treatment, or drugs in the same vehicle as was used in identically treated controls. Mice were treated IT once daily for three days. NFA (100 μg) or antibody to IL-9 were administered in PBS IT. Treatment responses were measured by the assessment of mucin inhibition by histologic exam (PAS staining of greater than 10 sections through the treated and control lungs or western blots of MUC 1, MUC2 and MUC3 expression from the same lungs.
The up-regulation of mucus production in the IL9 transgenic is specifically associated with increased steady-state mRNA levels of MUC2 and MUC5AC as shown by RT-PCR (FIG. 9).

## O=C1OC(OC(=O)c2cccnc2Nc2cccc(C(F)(F)F)c2)c2ccccc21 (racemic) [Talniflumate, talniflumate]
NCI-H292/hCLCA1 cells
  PAS positive staining muco-glycoconjugates: significantly fewer positive staining muco-glycoconjugates
MUC2
  Lipoteichoic acid induction of MUC2 (luciferase RLU): modulated
[1]
  Inhibition of MUC5A/C secretion / mucin production (figure legends): inhibition of mucin production
[1]; Homo sapiens, 48 hours
  IC50: 36 µM
H292 clone 15 cells [2]
  IC50: 33 µM
[3]
  Lung eosinophilia by bronchoalveolar lavage: reduced the number of eosinophilic cells
[3]; listed as talniflumate
  Lung eosinophilia by bronchoalveolar lavage: inhibition of lung eosinophilia
[3]; talniflumate containing chow, Asp-sens mice
  Mucin (PAS) staining in lung: reduced mucin staining; also recorded: inhibition of mucin over production
[4]
  Chloride Current: reduction in chloride current
[5]
  Body weight gain: 8-12%
[5]; then sacrificed
  Survival: at least 26 days
H292 clone 15 cells [6]; H292 clone 15 cells, 48 hours, average of 3 experiments
  Est. LD50 (Alamar Blue): 108 µM
H292 clone 15 cells [6]; NCI-H292/hCLCA1 cells, concentrations up to 150 μM, FIG. 27
  LD50 (Alamar Blue): > 150 µM

## O=C1OC(OC(=O)c2cccnc2Nc2cccc(C(F)(F)F)c2)c2ccccc21 (single isomer, unassigned; enantiomer 2) [enantiomer 2]
[1]; 48 hours
  IC50: 40 µM

## COC(=O)c1cccnc1Nc1cccc(C(F)(F)F)c1 [1 (MSI 2213), Niflumic acid methyl ester]
[1]; Table 2, mucin production
  ELLA: −

## O=S(=O)(O)c1cc(N=C=S)ccc1C=Cc1ccc(N=C=S)cc1S(=O)(=O)O [DIDS, 4,4′-diisothiocyanostilbene-2,2′-disulfonic acid]
Activated Caco2 cells [7]
  PAS positive staining mucin glycoconjugates: significantly fewer positive staining mucin glycoconjugates

## O=C(O)c1ccccc1Nc1cccc(C(F)(F)F)c1 [Flufenamate]
Activated Caco2 cells [8]
  Mucin production by activated Caco2 cells: inhibited

## Cc1ccc(Cl)c(Nc2ccccc2C(=O)O)c1Cl [Meclofenamate]
Activated Caco2 cells [8]
  Mucin production by activated Caco2 cells: partially

## Cc1cccc(Nc2ccccc2C(=O)O)c1C [Mefenamate]
NCI-H292/hCLCA1 cells
  PAS positive staining muco-glycoconjugates: significantly fewer positive staining muco-glycoconjugates
Activated Caco2 cells [8]
  Mucin production by activated Caco2 cells: partially

## O=C(O)c1cccnc1Nc1cccc(C(F)(F)F)c1 [NFA, niflumic acid]
Activated LHL4 cells
  Eotaxin production: Significant inhibition; also recorded: blocks epithelial activation including chemokine production
[9]
  Viability of activated Caco2 cells: not affected; also recorded: did not effect their viability
NCI-H292/hCLCA1 cells
  PAS positive staining muco-glycoconjugates: significantly fewer positive staining muco-glycoconjugates
[10]
  Serum IgE levels: no effect
[10]; vs PBS
  Antigen-induced airway hyperresponsiveness: suppress airway hyperresponsiveness; also recorded: suppresses antigen-induced airway hyperresponsiveness
  BAL lung eosinophilia: suppress; also recorded: reduces antigen-induced lung eosinophilia
  Over-production of mucus in the lung caused by exposure to antigen: suppress the over-production of mucus; also recorded: blocks increased mucin expression
IL9 transgenic mice
  Mucin production in IL9 transgenic lungs: decreased mucin production
Activated Caco2 cells [7]
  PAS positive staining mucin glycoconjugates: significantly fewer positive staining mucin glycoconjugates; also recorded: blocks mucin overproduction in vitro

## COc1ccc2cc([C@H](C)C(=O)O)ccc2c1 [Naproxen]
Activated Caco2 cells [8]
  Mucin production by activated Caco2 cells: ineffective

## CS(=O)(=O)Nc1ccc([N+](=O)[O-])cc1Oc1ccccc1 [Nimesulide]
[1]; hCLCA1 expressing H292 cells, 48 hours
  Inhibition of MUC5A/C secretion / mucin production (figure legends): inhibition of MUCSA/C secretion

## CC1=C(CC(=O)O)c2cc(F)ccc2/C1=C\c1ccc([S+](C)[O-])cc1 (stereo not drawn) [Sulindac]
Activated Caco2 cells [8]
  Mucin production by activated Caco2 cells: ineffective

## Cc1c(Cl)cccc1Nc1ccccc1C(=O)O [Tolfenamate]
Activated Caco2 cells [7]; FIG. 2
  Mucin production by activated Caco2 cells: inhibited
